Measured values reported in patent US20240383905A1, “FGFR INHIBITORS AND METHODS OF USE THEREOF” (3H PHARMACEUTICALS CO., LTD., priority 2021, published 2024).
Like-named read-outs stand apart in the source and are kept apart here. Values belong to the compound of their own block, whether it stands above or below them.

Experiments:
[1] = biological target: T1, FGFR2 (Homo sapiens, UniProt P21802); assay: FGFR2 Biochemical Caliper Assay (KinEASE-TK kit); details: 0.07 nM FGFR2; compound incubated with protein 10 min, reaction 45 min at RT; read-out: FGFR2 Cliper IC50
T1 construct: purchased Carna 08-134
T1 sequence (P21802 22-821): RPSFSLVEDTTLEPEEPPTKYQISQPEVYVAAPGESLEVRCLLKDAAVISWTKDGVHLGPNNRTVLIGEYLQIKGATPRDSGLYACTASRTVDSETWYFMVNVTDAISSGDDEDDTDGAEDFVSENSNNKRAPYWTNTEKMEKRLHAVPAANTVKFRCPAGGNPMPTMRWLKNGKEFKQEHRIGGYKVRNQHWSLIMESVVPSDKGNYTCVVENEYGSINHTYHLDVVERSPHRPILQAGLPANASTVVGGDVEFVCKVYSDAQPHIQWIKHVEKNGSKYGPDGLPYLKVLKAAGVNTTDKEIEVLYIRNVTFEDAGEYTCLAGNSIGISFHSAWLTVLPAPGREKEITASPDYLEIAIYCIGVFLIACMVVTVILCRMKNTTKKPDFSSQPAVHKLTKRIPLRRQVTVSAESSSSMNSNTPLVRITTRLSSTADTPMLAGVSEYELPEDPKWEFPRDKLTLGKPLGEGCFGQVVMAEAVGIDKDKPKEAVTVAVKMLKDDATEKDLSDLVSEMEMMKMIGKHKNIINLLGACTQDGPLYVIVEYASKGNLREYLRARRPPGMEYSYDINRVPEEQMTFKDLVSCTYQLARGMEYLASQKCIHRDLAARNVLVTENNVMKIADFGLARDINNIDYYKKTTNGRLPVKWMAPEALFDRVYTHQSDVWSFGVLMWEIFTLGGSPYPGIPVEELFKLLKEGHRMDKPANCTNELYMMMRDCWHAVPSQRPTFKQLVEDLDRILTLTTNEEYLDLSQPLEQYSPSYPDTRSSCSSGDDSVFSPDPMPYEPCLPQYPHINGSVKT

[2] = biological target: T2, FGFR1 (Homo sapiens, UniProt P11362); assay: FGFR1 Biochemical Caliper Assay (KinEASE-TK kit); details: ratio FGFR1/FGFR2 of the biochemical assay
T2 construct: purchased Carna 08-133
T2 sequence (P11362 22-822): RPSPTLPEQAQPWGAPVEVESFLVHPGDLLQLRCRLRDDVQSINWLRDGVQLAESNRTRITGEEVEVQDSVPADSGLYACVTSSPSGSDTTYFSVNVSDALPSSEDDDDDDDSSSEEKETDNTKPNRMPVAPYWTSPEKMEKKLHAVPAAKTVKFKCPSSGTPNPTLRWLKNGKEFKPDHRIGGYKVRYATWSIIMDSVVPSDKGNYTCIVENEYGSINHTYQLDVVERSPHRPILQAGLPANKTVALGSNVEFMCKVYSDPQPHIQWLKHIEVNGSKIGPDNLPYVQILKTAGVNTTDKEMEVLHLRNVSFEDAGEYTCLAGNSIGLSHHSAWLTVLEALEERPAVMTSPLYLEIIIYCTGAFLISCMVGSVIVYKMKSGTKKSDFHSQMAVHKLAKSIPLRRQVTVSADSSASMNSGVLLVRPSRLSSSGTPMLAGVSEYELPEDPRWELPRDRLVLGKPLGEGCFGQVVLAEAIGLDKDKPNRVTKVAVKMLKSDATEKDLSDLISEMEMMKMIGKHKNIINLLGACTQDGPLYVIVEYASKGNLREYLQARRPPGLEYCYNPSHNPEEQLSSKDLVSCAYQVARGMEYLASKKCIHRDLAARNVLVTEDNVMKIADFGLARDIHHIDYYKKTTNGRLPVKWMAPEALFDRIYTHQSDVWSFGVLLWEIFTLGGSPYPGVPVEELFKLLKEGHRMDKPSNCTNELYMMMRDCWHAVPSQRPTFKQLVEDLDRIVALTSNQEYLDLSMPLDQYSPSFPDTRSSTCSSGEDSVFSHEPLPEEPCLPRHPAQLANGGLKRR
How it was run: (§1)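 KinEASE-TK HTRF readout: enzyme at 0.2 nM (FGFR1, FGFR3) preincubated 10 min at RT with 10-point 3-fold compound dilutions before TK-substrate/ATP start.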

[3] = biological target: T3, FGFR3 (Homo sapiens, UniProt P22607); assay: FGFR3 Biochemical Caliper Assay (KinEASE-TK kit); details: ratio FGFR3/FGFR2 of the biochemical assay
T3 construct: purchased Carna 08-135
T3 sequence (P22607 23-806): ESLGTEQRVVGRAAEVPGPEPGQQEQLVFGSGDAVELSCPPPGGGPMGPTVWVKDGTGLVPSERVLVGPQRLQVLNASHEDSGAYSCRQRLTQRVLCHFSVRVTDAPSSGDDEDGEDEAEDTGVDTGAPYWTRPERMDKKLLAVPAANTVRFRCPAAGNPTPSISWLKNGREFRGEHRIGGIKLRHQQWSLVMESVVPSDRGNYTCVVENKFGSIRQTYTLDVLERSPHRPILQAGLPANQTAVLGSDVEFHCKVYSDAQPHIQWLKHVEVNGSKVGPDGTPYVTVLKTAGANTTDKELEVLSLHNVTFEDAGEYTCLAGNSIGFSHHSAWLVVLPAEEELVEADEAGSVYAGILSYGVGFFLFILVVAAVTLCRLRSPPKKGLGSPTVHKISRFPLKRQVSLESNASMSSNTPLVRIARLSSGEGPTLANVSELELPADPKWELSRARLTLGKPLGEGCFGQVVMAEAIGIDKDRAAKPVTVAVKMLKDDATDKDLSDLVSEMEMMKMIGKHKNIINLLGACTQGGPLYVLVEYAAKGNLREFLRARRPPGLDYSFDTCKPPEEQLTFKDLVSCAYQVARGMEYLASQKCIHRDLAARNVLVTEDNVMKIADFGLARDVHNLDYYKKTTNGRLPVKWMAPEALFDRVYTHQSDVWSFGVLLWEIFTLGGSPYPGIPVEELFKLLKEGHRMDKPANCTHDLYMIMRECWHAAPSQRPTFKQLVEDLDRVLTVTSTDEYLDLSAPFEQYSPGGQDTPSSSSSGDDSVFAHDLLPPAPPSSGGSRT
How it was run: as §1

[4] = tested on: SNU16 cells; assay: SNU16 Cancer Cell Line Proliferation Assay (CellTiter-Glo); type: cell-based
How it was run: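 SNU16 cells at 5000/well exposed to 9-point 3-fold serial compound dilutions (DMSO control) for 72 h at 37 °C, 5% CO2. Viability read by luminescence; IC50 calculated from dose-response.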

Compound: C=C(F)C(=O)Nc1ccc(-c2nn3ncnc(N)c3c2-c2ccc(C(=O)NC3CC3)c(OC)c2)c(F)c1 [Compound 153, 4-(4-amino-6-(2-fluoro-4-(2-fluoroacrylamido)phenyl)pyrazolo[5,1-f][1,2,4]triazin-5-yl)-N-cyclopropyl-2-methoxybenzamide]
IC50 [1]: < 5 nM | Selectivity FGFR1/FGFR2 [2]: A+ (Selectivity of FGFR1/FGFR2 greater or equal to 500) | Selectivity FGFR3/FGFR2 [3]: A+ (Selectivity of FGFR3/FGFR2 greater or equal to 150) | IC50 ([4]; Homo sapiens, SNU-16, 72 h): ≤ 10 nM

Compound: C=C(F)C(=O)Nc1ccc(-c2nn3ncnc(N)c3c2-c2ccc(C(=O)NC3CC(F)C3)c(OC)c2)c(F)c1 (stereo not shown) [Compound 249]
IC50 [1]: < 5 nM | Selectivity FGFR1/FGFR2 [2]: C (Selectivity of FGFR1/FGFR2 less than 200 but greater than or equal to 100) | Selectivity FGFR3/FGFR2 [3]: A+ (Selectivity of FGFR3/FGFR2 greater or equal to 150) | IC50 ([4]; Homo sapiens, SNU-16, 72 h): ≤ 10 nM

Compound: C=C(F)C(=O)Nc1ccc(-c2nn3ncnc(N)c3c2-c2ccc(C(=O)NCC3(C(F)(F)F)CC3)c(OC)c2)c(F)c1 [Compound 358, 4-(4-amino-6-(2-fluoro-4-(2-fluoroacrylamido)phenyl)pyrazolo[5,1-f] [1,2,4]triazin-5-yl)-2-methoxy-N-((1-(trifluoromethyl)cyclo-propyl)methyl) benzamide]
IC50 [1]: < 5 nM | Selectivity FGFR1/FGFR2 [2]: A+ (Selectivity of FGFR1/FGFR2 greater or equal to 500) | Selectivity FGFR3/FGFR2 [3]: A (Selectivity of FGFR3/FGFR2 less than 150 but greater than or equal to 100) | IC50 ([4]; 72 h, read-out: Cell SNU-16 IC50): ≤ 10 nM

Compound: C=CC(=O)Nc1ccc(-c2c(-c3ccc(C(=O)NCC)c(OC)c3)c3c(N)ncc(C#N)c3n2C)cc1 [Compound 107, 4-(2-(4-acrylamidophenyl)-4-amino-7-cyano-1-methyl-1H-pyrrolo[3,2-c]pyridin-3-yl)-N-ethyl-2-methoxybenzamide]
IC50 [1]: < 5 nM | Selectivity FGFR1/FGFR2 [2]: A+ (Selectivity of FGFR1/FGFR2 greater or equal to 500) | Selectivity FGFR3/FGFR2 [3]: A (Selectivity of FGFR3/FGFR2 less than 150 but greater than or equal to 100) | IC50 ([4]; Homo sapiens, SNU-16, 72 h): ≤ 10 nM

Compound: C=CC(=O)Nc1ccc(-c2nn3ncnc(N)c3c2-c2ccc(Oc3nccc(CC)n3)c(F)c2)cc1 [Compound 400, N-(4-(4-amino-5-(4-((4-ethylpyrimidin-2-yl)oxy)-3-fluorophenyl)pyrazolo[5,1-f][1,2,4]triazin-6-yl)phenyl)acrylamide]
IC50 [1]: < 5 nM | Selectivity FGFR1/FGFR2 [2]: A+ (Selectivity of FGFR1/FGFR2 greater or equal to 500) | Selectivity FGFR3/FGFR2 [3]: A+ (Selectivity of FGFR3/FGFR2 greater or equal to 150) | IC50 ([4]; Homo sapiens, SNU-16, 72 h): ≤ 10 nM

Compound: C=C(F)C(=O)Nc1ccc(-c2nn3ncnc(N)c3c2-c2ccc(C(=O)NC3CC(F)(F)C3)c(OC)c2)c(F)c1 [Compound 234]
IC50 [1]: < 5 nM | Selectivity FGFR1/FGFR2 [2]: A+ (Selectivity of FGFR1/FGFR2 greater or equal to 500) | Selectivity FGFR3/FGFR2 [3]: A+ (Selectivity of FGFR3/FGFR2 greater or equal to 150) | IC50 ([4]; Homo sapiens, SNU-16, 72 h): ≤ 10 nM

Compound: C=CC(=O)Nc1ccc(-c2c(-c3ccc(NC(=O)C4CC4)c(OC)c3)c3c(N)ncc(C#N)c3n2C)cc1 [Compound 237]
IC50 [1]: 5 to 10 nM | Selectivity FGFR1/FGFR2 [2]: B (Selectivity of FGFR1/FGFR2 less than 300 but greater than or equal to 200) | Selectivity FGFR3/FGFR2 [3]: A+ (Selectivity of FGFR3/FGFR2 greater or equal to 150) | IC50 ([4]; Homo sapiens, SNU-16, 72 h): ≤ 10 nM

Compound: C=C(C)C(=O)Nc1ccc(-c2c(-c3ccc(Oc4nccc(C)n4)c(F)c3)c3c(N)ncc(C#N)c3n2C)c(Cl)c1 [Compound 473, N-(4-(4-amino-7-cyano-3-(3-fluoro-4-((4-methylpyrimidin-2-yl)oxy)phenyl)-1-methyl-1H-pyrrolo[3,2-c]pyridin-2-yl)-3-chlorophenyl)methacrylamide]
IC50 [1]: < 5 nM | Selectivity FGFR1/FGFR2 [2]: A+ (Selectivity of FGFR1/FGFR2 greater or equal to 500) | Selectivity FGFR3/FGFR2 [3]: A+ (Selectivity of FGFR3/FGFR2 greater or equal to 150) | IC50 ([4]; Homo sapiens, SNU-16, 72 h): ≤ 10 nM

Compound: C=C(C)C(=O)Nc1ccc(-c2c(-c3ccc(Oc4nccc(C)n4)cc3)c3c(N)ncc(C#N)c3n2C)c(C)c1 [Compound 488, N-(4-(4-amino-7-cyano-1-methyl-3-(4-((4-methylpyrimidin-2-yl)oxy)phenyl)-1H-pyrrolo[3,2-c]pyridin-2-yl)-3-methylphenyl)methacrylamide]
IC50 [1]: > 10 nM | Selectivity FGFR1/FGFR2 [2]: A+ (Selectivity of FGFR1/FGFR2 greater or equal to 500) | Selectivity FGFR3/FGFR2 [3]: A+ (Selectivity of FGFR3/FGFR2 greater or equal to 150) | IC50 ([4]; Homo sapiens, SNU-16, 72 h): ≤ 10 nM

Compound: C=CC(=O)Nc1ccc(-c2c(-c3ccc(C(=O)NCC4CC4)c(OC)c3)c3c(N)ncc(C#N)c3n2C)cc1 [Compound 170]
IC50 [1]: < 5 nM | Selectivity FGFR1/FGFR2 [2]: A+ (Selectivity of FGFR1/FGFR2 greater or equal to 500) | Selectivity FGFR3/FGFR2 [3]: B (Selectivity of FGFR3/FGFR2 less than 100 but greater than or equal to 25) | IC50 ([4]; Homo sapiens, SNU-16, 72 h): ≤ 10 nM

Now from value to compound, other results behind:

IC50 [1]: < 5 nM | IC50 ([4]; Homo sapiens, SNU-16, 72 h): ≤ 10 nM
Compound: C=CC(=O)Nc1ccc(-c2nn3ncnc(N)c3c2-c2ccc(C(=O)NC3CC3)c(OC)c2)cc1 [Compound 89, 4-(6-(4-acrylamidophenyl)-4-aminopyrazolo[5,1-f] [1,2,4]triazin-5-yl)-N-cyclopropyl-2-methoxybenzamide]
Selectivity FGFR1/FGFR2 [2]: A+ (Selectivity of FGFR1/FGFR2 greater or equal to 500) | Selectivity FGFR3/FGFR2 [3]: A+ (Selectivity of FGFR3/FGFR2 greater or equal to 150)

IC50 [1]: > 10 nM | IC50 ([4]; Homo sapiens, SNU-16, 72 h): ≤ 10 nM
Compound: CC#CC(=O)Nc1ccc(-c2nn3ncnc(N)c3c2-c2ccc(C(=O)NC3(C(F)(F)F)CC3)c(OC)c2)cc1 [Compound 395]
Selectivity FGFR1/FGFR2 [2]: A+ (Selectivity of FGFR1/FGFR2 greater or equal to 500) | Selectivity FGFR3/FGFR2 [3]: B (Selectivity of FGFR3/FGFR2 less than 100 but greater than or equal to 25)

IC50 [1]: < 5 nM | IC50 ([4]; Homo sapiens, SNU-16, 72 h): ≤ 10 nM
Compound: C=CC(=O)Nc1ccc(-c2nn3ncnc(N)c3c2-c2ccc(C(=O)NC3CC(F)(F)C3)c(OC)c2)cc1 [Compound 98, 4-(6-(4-acrylamidophenyl)-4-aminopyrazolo[5,1-f] [1,2,4]triazin-5-yl)-N-(3,3-difluorocyclobutyl)-2-methoxybenzamide]
Selectivity FGFR1/FGFR2 [2]: A+ (Selectivity of FGFR1/FGFR2 greater or equal to 500) | Selectivity FGFR3/FGFR2 [3]: A+ (Selectivity of FGFR3/FGFR2 greater or equal to 150)

IC50 [1]: > 10 nM | IC50 ([4]; Homo sapiens, SNU-16, 72 h): ≤ 10 nM
Compound: C=CC(=O)Nc1ccc(-c2nn3ncnc(N)c3c2-c2ccc(NC(=O)C3CC(F)(F)C3)c(OC)c2)cc1 [Compound 340, N-(4-(6-(4-acrylamidophenyl)-4-aminopyrazolo[5,1-f][1,2,4]triazin-5-yl)-2-methoxyphenyl)-3,3-difluorocyclobutane-1-carboxamide]
Selectivity FGFR1/FGFR2 [2]: B (Selectivity of FGFR1/FGFR2 less than 300 but greater than or equal to 200) | Selectivity FGFR3/FGFR2 [3]: A (Selectivity of FGFR3/FGFR2 less than 150 but greater than or equal to 100)

IC50 [1]: < 5 nM | IC50 ([4]; Homo sapiens, SNU-16, 72 h): ≤ 10 nM
Compound: C=CC(=O)Nc1ccc(-c2nn3ncnc(N)c3c2-c2ccc(C(=O)NC3(C)CC3)c(OC)c2)cc1 [Compound 162, 4-(6-(4-acrylamidophenyl)-4-aminopyrazolo[5,1-f] [1,2,4]triazin-5-yl)-2-methoxy-N-(1-methylcyclopropyl)benzamide]
Selectivity FGFR1/FGFR2 [2]: A+ (Selectivity of FGFR1/FGFR2 greater or equal to 500) | Selectivity FGFR3/FGFR2 [3]: A+ (Selectivity of FGFR3/FGFR2 greater or equal to 150)

IC50 [1]: 5 to 10 nM | IC50 ([4]; Homo sapiens, SNU-16, 72 h): ≤ 10 nM
Compound: C=CC(=O)Nc1ccc(-c2nn3ncnc(N)c3c2-c2ccc(C(=O)NCC(C)(C)OC)c(OC)c2)cc1 [Compound 56, 4-(6-(4-acrylamidophenyl)-4-aminopyrazolo[5,1-f] [1,2,4]triazin-5-yl)-2-methoxy-N-(2-methoxy-2-methylpropyl)benzamide]
Selectivity FGFR1/FGFR2 [2]: A+ (Selectivity of FGFR1/FGFR2 greater or equal to 500) | Selectivity FGFR3/FGFR2 [3]: A (Selectivity of FGFR3/FGFR2 less than 150 but greater than or equal to 100)

IC50 [1]: < 5 nM | IC50 ([4]; Homo sapiens, SNU-16, 72 h): 10 to 50 nM
Compound: C=CC(=O)Nc1ccc(-c2nn3ncnc(N)c3c2-c2ccc(C(=O)NCC(F)(F)F)c(OC)c2)cn1 [Compound 90, 4-(6-(6-acrylamidopyridin-3-yl)-4-aminopyrazolo[5,1-f] [1,2,4]triazin-5-yl)-2-methoxy-N-(2,2,2-trifluoroethyl)benzamide]
Selectivity FGFR1/FGFR2 [2]: A (Selectivity of FGFR1/FGFR2 less than 500 but greater than or equal to 300) | Selectivity FGFR3/FGFR2 [3]: B (Selectivity of FGFR3/FGFR2 less than 100 but greater than or equal to 25)

IC50 [1]: < 5 nM | IC50 ([4]; Homo sapiens, SNU-16, 72 h): ≤ 10 nM
Compound: C=CC(=O)Nc1ccc(-c2nn3ncnc(N)c3c2-c2ccc(C(=O)NCC(C)C)c(OC)c2)cc1 [Compound 81, 4-(6-(4-acrylamidophenyl)-4-aminopyrazolo[5,1-f] [1,2,4]triazin-5-yl)-N-isobutyl-2-methoxybenzamide]
Selectivity FGFR1/FGFR2 [2]: A+ (Selectivity of FGFR1/FGFR2 greater or equal to 500) | Selectivity FGFR3/FGFR2 [3]: A+ (Selectivity of FGFR3/FGFR2 greater or equal to 150)

IC50 [1]: < 5 nM | IC50 ([4]; Homo sapiens, SNU-16, 72 h): ≤ 10 nM
Compound: C=CC(=O)Nc1ccc(-c2nn3ncnc(N)c3c2-c2ccc(C(=O)NCC3(C#N)CC3)c(OC)c2)cc1 [Compound 47, 4-(6-(4-acrylamidophenyl)-4-aminopyrazolo[5,1-f] [1,2,4]triazin-5-yl)-N-((1-cyanocyclopropyl)methyl)-2-methoxybenzamide]
Selectivity FGFR1/FGFR2 [2]: B (Selectivity of FGFR1/FGFR2 less than 300 but greater than or equal to 200) | Selectivity FGFR3/FGFR2 [3]: B (Selectivity of FGFR3/FGFR2 less than 100 but greater than or equal to 25)
